The values that follow are results of earlier work, collected in article PMC3688238, “The effect of different dosing regimens of motesanib on the gallbladder: a randomized phase 1b study in patients with advanced solid tumors” (BMC Cancer, 2013).

The series relates to gallbladder. The conditions noted are these: cited from earlier work.

Where two headings read alike, the source gives them in different places.

For the compound `COc1cc2c(Oc3ccc4[nH]c(C)cc4c3F)ncnc2cc1OCCCN1CCCC1` [Cediranib], the Adverse events reported entry was “Acute cholecystitis” (phase 1 study, ref Laurie et al. [21]) and “Gallbladder obstruction, abdominal pain” (phase 2 study, ref Batchelor et al. [22]).

`Cc1ccc(NC(=O)c2ccc(CN3CCN(C)CC3)cc2)cc1Nc1nccc(-c2cccnc2)n1` [Imatinib]: the Adverse events reported entry was “Gallstones, gallbladder wall thickening, abdominal pain” (case report, ref Breccia et al. [37]); “Cholecystitis” (phase 1 study, ref Grant et al. [24]); “Gallstones” (single-arm study, ref Yeh et al. [23]).

As for `CNC(=O)c1cc(Oc2ccc(NC(=O)Nc3ccc(Cl)c(C(F)(F)F)c3)cc2)ccn1` [Sorafenib], the Adverse events reported entry reads like this: (case report, ref Sanda et al. [20]) “Right upper abdominal pain, gallbladder edema, acute acalculous cholecystitis”; (ref Nexavar European public assessment report [26]) “Cholecystitis, cholangitis”; (ref Nexavar US prescribing information [25]) “Cholecystitis, cholangitis”.

Consider `CCN(CC)CCNC(=O)c1c(C)[nH]c(/C=C2\C(=O)Nc3ccc(F)cc32)c1C` [Sunitinib], for which the Adverse events reported result is reported as “Acute emphysematous cholecystitis, right upper abdominal pain, gallbladder distension” (case report, ref De Lima Lopes, Jr., et al. [18]); “Acute acalculous cholecystitis, right upper abdominal pain, gallbladder wall thickening” (case report, ref Gomez-Abuin et al. [19]); “Acute cholecystitis” (single-arm study, ref Motzer et al. [17]).
